Measured values as given in patent US11945822B2, “Pyrazolo-triazine and/or pyrazolo-pxrimidine derivatives as selective inhibitor of cyclin dependent kinase” (QURIENT CO., LTD., priority 2018, dated 2024).

What follows are compounds tested against T1, CDK7/Cyclin H/MNAT1 (Homo sapiens, UniProt P50613) (assay: Enzymatic assay for CDK7 (FRET based LANCE Ultra kinase assay)). Details: CDK7 over CDK1.
T1 construct: purchased Invitrogen PR6749B
Assay type: biochemical
Protocol: (§1) Enzymatic Binding Assay Protocol for CDK1, CDK2, CDK5 and CDK7
Inhibition activity of the respective compound on CDK kinase under Km value of ATP was tested in FRET based The LANCE® Ultra kinase assay (Perkin Elmer), which uses a ULight™-labeled peptide substrate and an appropriate Europium-labeled anti-phospho-antibody. […] After 1 min centrifugation at 1000 rpm, Purified CDKs/Cyclin complex were added following concentrations respectively. […] Data was analyzed using XL Fit software.

T1 sequence (P50613 whole entry): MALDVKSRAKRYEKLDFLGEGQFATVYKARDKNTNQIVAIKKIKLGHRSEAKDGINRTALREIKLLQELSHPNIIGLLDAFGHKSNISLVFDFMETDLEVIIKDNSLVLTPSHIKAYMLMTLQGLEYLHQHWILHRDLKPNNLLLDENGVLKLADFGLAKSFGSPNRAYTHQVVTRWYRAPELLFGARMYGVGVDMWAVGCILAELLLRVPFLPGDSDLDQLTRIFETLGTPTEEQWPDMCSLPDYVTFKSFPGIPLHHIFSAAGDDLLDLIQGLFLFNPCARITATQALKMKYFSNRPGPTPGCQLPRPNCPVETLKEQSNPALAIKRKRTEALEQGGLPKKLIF
T1 sequence (P51946 whole entry partner): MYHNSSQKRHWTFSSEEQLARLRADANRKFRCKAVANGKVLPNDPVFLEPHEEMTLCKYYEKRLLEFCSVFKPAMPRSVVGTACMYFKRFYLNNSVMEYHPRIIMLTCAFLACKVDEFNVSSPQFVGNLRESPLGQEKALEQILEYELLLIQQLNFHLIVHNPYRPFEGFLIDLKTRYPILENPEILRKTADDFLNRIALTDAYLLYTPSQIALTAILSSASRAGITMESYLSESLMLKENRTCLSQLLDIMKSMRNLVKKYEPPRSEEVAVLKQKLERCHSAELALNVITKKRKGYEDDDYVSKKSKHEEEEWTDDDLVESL
T1 sequence (P51948 whole entry partner): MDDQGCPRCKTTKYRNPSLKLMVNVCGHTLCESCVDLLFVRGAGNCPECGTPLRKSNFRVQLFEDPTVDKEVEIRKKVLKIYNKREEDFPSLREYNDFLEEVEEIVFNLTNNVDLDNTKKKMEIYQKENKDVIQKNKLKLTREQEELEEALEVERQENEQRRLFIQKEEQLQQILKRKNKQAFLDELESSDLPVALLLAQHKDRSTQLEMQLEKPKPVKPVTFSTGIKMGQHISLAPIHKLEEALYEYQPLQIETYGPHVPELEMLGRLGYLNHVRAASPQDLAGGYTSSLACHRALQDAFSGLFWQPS

Row | Compound | CDK1/CDK7: Selectivity of CDK7 inhibition over CDK1 inhibition
1 | NC1CCN(c2nc(NCc3ccccc3-n3cccn3)n3ncc(C4CCCC4)c3n2)CC1 [Compound 12] | B (B=less than 200 fold, but greater than 20 fold)
2 | CNC(=O)c1cccnc1CNc1nc(N2CCC(N)CC2)nc2c(C(C)(C)C)cnn12 [Compound 15] | A (A=greater than 200 fold)
3 | CC(C)c1cnn2c(NCc3cccc4ncn(C)c34)nc(N3CCC(N)CC3)nc12 [Compound 16] | B (B=less than 200 fold, but greater than 20 fold)
4 | CC(C)c1cnn2c(NCc3ccc(Cl)c(-n4cccn4)c3)nc(N3CCC(N)CC3)nc12 [Compound 67] | B (B=less than 200 fold, but greater than 20 fold)
5 | CC(C)c1cnn2c(NCc3ccccc3-n3cccn3)nc(C(=O)NC3CCNC3)nc12 (racemic) [Compound 8] | B (B=less than 200 fold, but greater than 20 fold)

Same assay, conditions: CDK7 over CDK2

Row | Compound | CDK2/CDK7: Selectivity of CDK7 inhibition over CDK2 inhibition
6 | NC1CCN(c2nc(NCc3ccccc3-n3cccn3)n3ncc(C4CCCC4)c3n2)CC1 [Compound 12] | B (B=less than 200 fold, but greater than 20 fold)
7 | CNC(=O)c1cccnc1CNc1nc(N2CCC(N)CC2)nc2c(C(C)(C)C)cnn12 [Compound 15] | A (A=greater than 200 fold)
8 | CC(C)c1cnn2c(NCc3cccc4ncn(C)c34)nc(N3CCC(N)CC3)nc12 [Compound 16] | B (B=less than 200 fold, but greater than 20 fold)
9 | CC(C)c1cnn2c(NCc3ccc(Cl)c(-n4cccn4)c3)nc(N3CCC(N)CC3)nc12 [Compound 67] | C (C=less than 20 fold)
10 | CC(C)c1cnn2c(NCc3ccccc3-n3cccn3)nc(C(=O)NC3CCNC3)nc12 (racemic) [Compound 8] | B (B=less than 200 fold, but greater than 20 fold)

Same assay, conditions: CDK7 over CDK5

Row | CDK5/CDK7: Selectivity of CDK7 inhibition over CDK5 inhibition | Compound
11 | C (C=less than 20 fold) | NC1CCN(c2nc(NCc3ccccc3-n3cccn3)n3ncc(C4CCCC4)c3n2)CC1 [Compound 12]
12 | C (C=less than 20 fold) | CC(C)c1cnn2c(NCc3cccc4ncn(C)c34)nc(N3CCC(N)CC3)nc12 [Compound 16]
13 | C (C=less than 20 fold) | CC(C)c1cnn2c(NCc3ccc(Cl)c(-n4cccn4)c3)nc(N3CCC(N)CC3)nc12 [Compound 67]
14 | C (C=less than 20 fold) | CC(C)c1cnn2c(NCc3ccccc3-n3cccn3)nc(C(=O)NC3CCNC3)nc12 (racemic) [Compound 8]

Row | Compound | CDK5/CDK7: Selectivity of CDK7 inhibition over CDK5 inhibition
15 | CNC(=O)c1cccnc1CNc1nc(N2CCC(N)CC2)nc2c(C(C)(C)C)cnn12 [Compound 15] | B (B=less than 200 fold, but greater than 20 fold)

Same assay, conditions: read-out: CDK7 enzymatic activity (IC50 range)

Row | IC50 [µM] | Compound
16 | < 0.1 | NC1CCN(c2nc(NCc3ccccc3-n3cccn3)n3ncc(C4CCCC4)c3n2)CC1 [Compound 12]
17 | < 0.1 | CNC(=O)c1cccnc1CNc1nc(N2CCC(N)CC2)nc2c(C(C)(C)C)cnn12 [Compound 15]
18 | < 0.1 | CC(C)c1cnn2c(NCc3cccc4ncn(C)c34)nc(N3CCC(N)CC3)nc12 [Compound 16]
19 | < 0.1 | CC(C)c1cnn2c(NCc3ccc(Cl)c(-n4cccn4)c3)nc(N3CCC(N)CC3)nc12 [Compound 67]
20 | 0.1 to 1 | CC(C)c1cnn2c(NCc3ccccc3-n3cccn3)nc(C(=O)NC3CCNC3)nc12 (racemic) [Compound 8]

These compounds were tested against T2, CDK5/p25 (Homo sapiens, UniProt Q00535) (assay: Enzymatic assay for CDK5 (FRET based LANCE Ultra kinase assay)). Details: read-out: CDK5 enzymatic activity (IC50 range).
T2 construct: purchased Invitrogen PR8543B
T2 sequence (Q00535 whole entry): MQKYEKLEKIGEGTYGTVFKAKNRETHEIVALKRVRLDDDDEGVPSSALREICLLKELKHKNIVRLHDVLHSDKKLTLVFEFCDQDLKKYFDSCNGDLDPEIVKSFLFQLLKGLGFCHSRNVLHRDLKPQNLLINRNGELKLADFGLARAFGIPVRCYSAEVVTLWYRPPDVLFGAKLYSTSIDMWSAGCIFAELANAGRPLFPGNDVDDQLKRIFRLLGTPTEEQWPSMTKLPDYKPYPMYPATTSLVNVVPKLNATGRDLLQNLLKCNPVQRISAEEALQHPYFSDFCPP
T2 sequence (Q15078 99-307 partner limits assumed): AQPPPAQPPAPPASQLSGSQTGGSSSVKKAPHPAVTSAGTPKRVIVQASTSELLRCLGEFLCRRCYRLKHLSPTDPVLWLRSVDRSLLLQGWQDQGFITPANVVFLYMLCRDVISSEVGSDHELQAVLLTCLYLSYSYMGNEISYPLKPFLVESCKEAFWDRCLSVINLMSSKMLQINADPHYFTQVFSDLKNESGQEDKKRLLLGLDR
Assay type: biochemical
Protocol: as §1
(§2) Inhibition activity of the respective compound on CDK kinase under Km value of ATP was tested in FRET based The LANCE® Ultra kinase assay (Perkin Elmer), which uses a ULight™-labeled peptide substrate and an appropriate Europium-labeled anti-phospho-antibody. Test compounds were made with DMSO solutions, and then 4-fold serial dilutions for 8 doses were prepared using automated liquid handler (POD810, LABCYTE) and 80 nL/well of diluted compound solutions were added into the 384-well plates (Greiner, Cat #784075). And then 68 nM of ULight-MBP peptide (Perkin Elmer, Cat #TRF0109-M) and 5 ul/well of ATP (Sigma, Cat #A7699) were added to the plate. After 1 min centrifugation at 1000 rpm, Purified CDKs/Cyclin complex were added following concentrations respectively. 24 uM for CDK1/Cyclin B (Invitrogen, Cat #PR4768C), 22 uM for CDK2/Cyclin A (Invitrogen, Cat #PV6290), 10 uM for CDK5/p25 (Invitrogen, Cat #PR8543B) and […] for CDK7/Cyclin H/MNAT1 (Invitrogen, Cat #PR6749B) were added to the each corresponding plate for CDK1, CDK2, CDK5 and CDK7. Incubate at 23° C. for 60 min and then Eu-labeled anti-phospho-Myelin Basic Protein (PE, Cat #TRF0201-M) and EDTA (Invitrogen, Cat #15575038) mixture in Lance Detection Buffer (Perkin Elmer, Cat #CR97100) was added in each well. After additional incubation at 23° C. for 60 min, test articles were measured the fluorescence using Envision leader (Perkin Elmer, USA) [Laser as excitation light; […] as the first and the second emission filter]. Data was analyzed using XL Fit software.

Row | IC50 [µM] | Compound
21 | < 0.1 | NC1CCN(c2nc(NCc3ccccc3-n3cccn3)n3ncc(C4CCCC4)c3n2)CC1 [Compound 12]
22 | > 1 | CNC(=O)c1cccnc1CNc1nc(N2CCC(N)CC2)nc2c(C(C)(C)C)cnn12 [Compound 15]
23 | < 0.1 | CC(C)c1cnn2c(NCc3cccc4ncn(C)c34)nc(N3CCC(N)CC3)nc12 [Compound 16]
24 | 0.1 to 1 | CC(C)c1cnn2c(NCc3ccc(Cl)c(-n4cccn4)c3)nc(N3CCC(N)CC3)nc12 [Compound 67]
25 | > 1 | CC(C)c1cnn2c(NCc3ccccc3-n3cccn3)nc(C(=O)NC3CCNC3)nc12 (racemic) [Compound 8]

These compounds were tested on H460 (assay: Cellular H460 viability assay (CellTiter-Glo, 72 hours)). Details: Homo sapiens, NCI-H460.
Assay type: cell-based
Protocol: All cell lines were routinely tested for mycoplasma.
The effect of the CDK7 inhibitor to inhibit the growth of target cancer cells was evaluated through the 72 hours time period of viability assay. Briefly, the candidate cell line ware plated in 96 well plate at the following density of cells respectively. […] DMSO solvent without compound served as a control and final DMSO concentration less than 0.1%. After 72 hours of incubation at 37° C., 5% CO2 incubator, cells were analyzed for the viability using the CellTiter-Glo Luminescent Cell Viability Assay (Promega, Cat #G7570). All viability assays were performed in duplicate and Luminescence was read using an Envision (Perkin Elmer, USA). Data was analyzed using XLfit software.

Row | IC50 [µM] | Compound
26 | < 1 | NC1CCN(c2nc(NCc3ccccc3-n3cccn3)n3ncc(C4CCCC4)c3n2)CC1 [Compound 12]
27 | < 1 | CC(C)c1cnn2c(NCc3cccc4ncn(C)c34)nc(N3CCC(N)CC3)nc12 [Compound 16]
28 | 1 to 10 | CC(C)c1cnn2c(NCc3ccc(Cl)c(-n4cccn4)c3)nc(N3CCC(N)CC3)nc12 [Compound 67]
29 | > 10 | CC(C)c1cnn2c(NCc3ccccc3-n3cccn3)nc(C(=O)NC3CCNC3)nc12 (racemic) [Compound 8]

The compounds below were run against T3, CDK2/Cyclin A (Homo sapiens, UniProt P24941) (assay: Enzymatic assay for CDK2 (FRET based LANCE Ultra kinase assay)). Details: read-out: CDK2 enzymatic activity (IC50 range).
T3 construct: purchased Invitrogen PV6290
Assay type: biochemical
Protocol: as §1, §2

Row | IC50 [µM] | Compound
30 | 0.1 to 1 | NC1CCN(c2nc(NCc3ccccc3-n3cccn3)n3ncc(C4CCCC4)c3n2)CC1 [Compound 12]
31 | > 1 | CNC(=O)c1cccnc1CNc1nc(N2CCC(N)CC2)nc2c(C(C)(C)C)cnn12 [Compound 15]
32 | 0.1 to 1 | CC(C)c1cnn2c(NCc3cccc4ncn(C)c34)nc(N3CCC(N)CC3)nc12 [Compound 16]
33 | 0.1 to 1 | CC(C)c1cnn2c(NCc3ccc(Cl)c(-n4cccn4)c3)nc(N3CCC(N)CC3)nc12 [Compound 67]
34 | > 1 | CC(C)c1cnn2c(NCc3ccccc3-n3cccn3)nc(C(=O)NC3CCNC3)nc12 (racemic) [Compound 8]

These compounds were tested against T4, CDK1/Cyclin B (Homo sapiens, UniProt P06493) (assay: Enzymatic assay for CDK1 (FRET based LANCE Ultra kinase assay)). Details: read-out: CDK1 enzymatic activity (IC50 range).
T4 construct: purchased Invitrogen PR4768C
T4 sequence (P06493 whole entry): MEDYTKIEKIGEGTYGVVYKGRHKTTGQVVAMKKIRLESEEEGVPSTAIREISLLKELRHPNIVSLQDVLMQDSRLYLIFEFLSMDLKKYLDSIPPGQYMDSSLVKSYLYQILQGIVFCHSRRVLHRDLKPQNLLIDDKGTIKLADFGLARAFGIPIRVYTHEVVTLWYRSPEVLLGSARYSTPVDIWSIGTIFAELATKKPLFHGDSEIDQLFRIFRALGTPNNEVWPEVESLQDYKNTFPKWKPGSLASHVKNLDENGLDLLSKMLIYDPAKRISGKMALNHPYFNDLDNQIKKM
T4 sequence (P14635 whole entry partner): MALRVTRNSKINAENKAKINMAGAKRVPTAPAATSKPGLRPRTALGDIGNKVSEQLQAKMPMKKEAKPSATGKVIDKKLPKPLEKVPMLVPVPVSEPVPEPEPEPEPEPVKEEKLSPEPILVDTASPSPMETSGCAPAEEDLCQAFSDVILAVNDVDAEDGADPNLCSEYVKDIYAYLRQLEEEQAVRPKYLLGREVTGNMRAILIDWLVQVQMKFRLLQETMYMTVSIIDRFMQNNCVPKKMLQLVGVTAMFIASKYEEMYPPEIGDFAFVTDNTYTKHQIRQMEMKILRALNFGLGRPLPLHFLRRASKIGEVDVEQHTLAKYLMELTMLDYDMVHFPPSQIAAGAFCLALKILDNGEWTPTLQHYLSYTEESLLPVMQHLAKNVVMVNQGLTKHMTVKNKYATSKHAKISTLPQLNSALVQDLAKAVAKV
Assay type: biochemical
Protocol: as §1, §2

Row | IC50 [µM] | Compound
35 | 0.1 to 1 | NC1CCN(c2nc(NCc3ccccc3-n3cccn3)n3ncc(C4CCCC4)c3n2)CC1 [Compound 12]
36 | > 1 | CNC(=O)c1cccnc1CNc1nc(N2CCC(N)CC2)nc2c(C(C)(C)C)cnn12 [Compound 15]
37 | 0.1 to 1 | CC(C)c1cnn2c(NCc3cccc4ncn(C)c34)nc(N3CCC(N)CC3)nc12 [Compound 16]
38 | > 1 | CC(C)c1cnn2c(NCc3ccc(Cl)c(-n4cccn4)c3)nc(N3CCC(N)CC3)nc12 [Compound 67]
39 | > 1 | CC(C)c1cnn2c(NCc3ccccc3-n3cccn3)nc(C(=O)NC3CCNC3)nc12 (racemic) [Compound 8]
